SMILES strings stand for the structures. pIC50: −log10 of the molar value. Where a name gives a salt, the structure may show the parent alone. Read-outs that look alike come from different tables or passages of the source.

This test deals with c-fms (Homo sapiens, UniProt P07333). Kind of test: autophosphorylation, fluorescence polarization competition immunoassay for c-fms inhibition. The test is classed as biochemical. The following applies: read-out: c-fins IC50. The method, then: The assay buffer used was 100 mM 4-(2-hydroxyethyl)piperazine 1-ethanesulfonic acid (HEPES), pH 7.5, 1 mM 1,4-dithio-DL-threitol (DTT), 0.01% (v/v) Tween-20. Compounds were diluted in assay buffer containing 4% dimethylsulfoxide (DMSO) just prior to the assay. […] The kinase reaction was initiated by adding 2 μL of 5 mM ATP (Sigma) in assay buffer. The final concentrations in the assay were 10 nM c-fms, 1 mM ATP, 5 mM MgCl2, 2% DMSO. Control reactions were ran in each plate: in positive and negative control wells, assay buffer (made 4% in DMSO) was substituted for the compound; in addition, positive control wells received 1.2 μL of 50 mM ethylenediaminetetraaceticacid (EDTA).
Sequence of c-fms (P07333 20-972): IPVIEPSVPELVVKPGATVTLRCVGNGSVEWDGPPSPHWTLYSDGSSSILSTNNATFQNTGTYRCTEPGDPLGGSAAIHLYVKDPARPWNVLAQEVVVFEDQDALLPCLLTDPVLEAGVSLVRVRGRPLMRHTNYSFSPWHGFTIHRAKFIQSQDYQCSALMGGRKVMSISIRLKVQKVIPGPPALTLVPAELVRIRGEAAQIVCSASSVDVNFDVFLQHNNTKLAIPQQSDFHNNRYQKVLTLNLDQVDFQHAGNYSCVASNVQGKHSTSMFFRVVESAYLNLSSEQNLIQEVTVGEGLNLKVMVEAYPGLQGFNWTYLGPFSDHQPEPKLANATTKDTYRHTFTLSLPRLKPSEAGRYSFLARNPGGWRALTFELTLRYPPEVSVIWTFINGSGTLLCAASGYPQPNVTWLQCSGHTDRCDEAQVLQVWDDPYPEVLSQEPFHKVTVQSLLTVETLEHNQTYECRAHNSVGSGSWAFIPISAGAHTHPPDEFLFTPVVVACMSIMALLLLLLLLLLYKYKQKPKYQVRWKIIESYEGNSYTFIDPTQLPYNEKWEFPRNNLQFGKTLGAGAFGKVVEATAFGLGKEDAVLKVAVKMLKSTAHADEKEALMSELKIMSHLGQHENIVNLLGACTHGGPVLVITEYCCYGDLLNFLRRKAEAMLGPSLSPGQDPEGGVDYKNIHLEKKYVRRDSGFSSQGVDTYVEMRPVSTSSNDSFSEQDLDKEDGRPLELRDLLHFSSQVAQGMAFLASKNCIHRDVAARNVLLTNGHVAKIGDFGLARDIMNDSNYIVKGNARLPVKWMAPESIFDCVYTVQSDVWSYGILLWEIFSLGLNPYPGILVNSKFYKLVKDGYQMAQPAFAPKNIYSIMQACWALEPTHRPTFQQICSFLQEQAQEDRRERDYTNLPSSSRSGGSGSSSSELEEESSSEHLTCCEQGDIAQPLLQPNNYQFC
The plates were incubated at room temperature for 45 min. At the end of the incubation, the reaction was quenched with 1.2 μL of 50 mM EDTA (EDTA was not added to the positive control wells at this point; see above). Following a 5-min incubation, each well received 10 μL of a 1:1:3 mixture of anti-phosphotyrosine antibody, 10X, PTK green tracer, 10X (vortexed), FP dilution buffer, respectively (all from PanVera, cat. # P2837). The plate was covered, incubated for 30 min at room temperature and the fluorescence polarization was read on the Analyst. […] The reported IC50 values are averages of three independent measurements.
For orientation: In fluorescence polarisation assays a small probe gives low polarisation when free and higher when bound to something large.

Setting [1] is: 10 nM c-fms, 1 mM ATP, 5 mM MgCl2, 2% DMSO, 45 min at room temperature, averages of three independent measurements.

For `CS(=O)(=O)CCN1CCC(c2ccc(NC(=O)c3nc(C#N)c[nH]3)c(C3=CCCCC3)n2)CC1` [Example 58, 5-Cyano-1H-imidazole-2-carboxylic acid [6-cyclohex-1-enyl-1′-(2-methanesulfonyl-ethyl)-1′,2′,3′,4′,5′,6′-hexahydro-[2,4′]bipyridinyl-5-yl]-amide], the pIC50 – broadly, the negative decadic logarithm of the IC50, by convention in mol/L – under setting [1] was 8.15.
Regarding `Cn1ccnc1CN1CCC(c2ccc(NC(=O)c3nc(C#N)c[nH]3)c(C3=CCCC3)c2)CC1` [Example 23, 4-Cyano-1H-imidazole-2-carboxylic acid {2-cyclopent-1-enyl-4-[1-(1-methyl-1H-imidazol-2-ylmethyl)-piperidin-4-yl]-phenyl}-amide trifluoroacetic acid salt], the pIC50 under setting [1] is 8.18.
Turning to `CC1CC=C(c2cc(C3CCN(Cc4ccccn4)CC3)ccc2NC(=O)c2nc(C#N)c[nH]2)CC1` (stereo not shown) [Example 22, 4-Cyano-1H-imidazole-2-carboxylic acid [2-(4-methyl-cyclohex-1-enyl)-4-(1-pyridin-2-ylmethyl-piperidin-4-yl)-phenyl]-amide trifluoroacetic acid salt], the pIC50 under setting [1] was 8.85.
Still for that read-out and setting: as for `O=C(Nc1ccc(C2CCNCC2)cc1C1=CCCCC1)c1nnc(Cl)[nH]1` [Example 50, 5-Chloro-4H-[1,2,4]-triazole-3-carboxylic acid (2-cyclohex-1-enyl-4-piperidin-4-yl-phenyl)-amide trifluoroacetic acid salt], the figure is 7.22; as for `CNCC(=O)N1CCC(c2ccc(NC(=O)c3nc(C#N)c[nH]3)c(C3=CCCCC3)c2)CC1` [Example 38b, 4-Cyano-1H-imidazole-2-carboxylic acid {2-cyclohex-1-enyl-4-[1-(2-methylamino-acetyl)-piperidin-4-yl]-phenyl}-amide], 8.85.
With `C[C@H]1CC(c2ccc(NC(=O)c3ncc(C#N)[nH]3)c(C3=CCCCC3)c2)C[C@H](C)N1` (stereo partly drawn) [Example 51b, 5-cyano-1H-imidazole-2-carboxylic acid [2-cyclohex-1-enyl-4-(trans-2,6-dimethyl-piperidin-4-yl)-phenyl]-amide bis trifluoroacetic acid salt], the pIC50 under setting [1] is 9.40.
The same measure, in the same setting: as for `N#Cc1c[nH]c(C(=O)Nc2ccc(C3CCS(=O)(=O)CC3)cc2C2=CCCCC2)n1` [Example 35, 4-Cyano-1H-imidazole-2-carboxylic acid [2-cyclohex-1-enyl-4-(1,1-dioxo-hexahydro-1λ^6-thiopyran-4-yl)-phenyl]-amide], the figure is 8.54; as for `CC(=O)N1CCC(c2ccc(NC(=O)c3cc(C#N)c[nH]3)c(C3=CCCCC3)c2)CC1` [Example 15, 4-Cyano-1H-pyrrole-2-carboxylic acid [4-(1-acetyl-piperidin-4-yl)-2-cyclohex-1-enyl-phenyl]-amide], 7.55.
In the case of `CN1CCN(c2ccc(NC(=O)c3ccc(C#N)o3)c(-c3ccccc3F)c2)CC1` [Example 10, 5-Cyano-furan-2-carboxylic acid [2′-fluoro-5-(4-methyl-piperazin-1-yl)-biphenyl-2-yl]-amide], the pIC50 under setting [1] is 6.05.
Same read-out and setting: the value for `Cc1ccccc1-c1cc(N2CCN(C)CC2)ccc1NC(=O)c1ccc(C#N)o1` [Example 9, 5-Cyano-furan-2-carboxylic acid [2 ′-methyl-5-(4-methyl-piperazin-1-yl)-biphenyl-2-yl]-amide] was 6.20; that for `CC(=O)N1CCC(c2ccc(NC(=O)c3nc(C#N)c[nH]3)c(C3=CCS(=O)(=O)CC3)c2)CC1` [Example 37, 4-Cyano-1H-imidazole-2-carboxylic acid [4-(1-acetyl-piperidin-4-yl)-2-(1,1-dioxo-1,2,3,6-tetrahydro-1λ^6-thiopyran-4-yl)-phenyl]-amide] was 7.22.
Still for that read-out and setting: as for `CC1(C)CC=C(c2nc(C3CCN(CCS(C)(=O)=O)CC3)ccc2NC(=O)c2nc(C#N)c[nH]2)CC1` [Example 56, 4-Cyano-1H-imidazole-2-carboxylic acid [6-(4,4-dimethyl-cyclohex-1-enyl)-1′-(2-methanesulfonyl-ethyl)-1′,2′,3′,4′,5′,6′-hexhydro-[2,4′]bipyridinyl-5-yl]-amide trifluoroacetic acid salt], the figure is 9.00; as for `C[C@@H]1CC(c2ccc(NC(=O)c3ncc(C#N)[nH]3)c(C3=CCCCC3)c2)C[C@H](C)N1` (stereo partly drawn) [Example 51a, 5-Cyano-1H-imidazole-2-carboxylic acid [2-cyclohex-1-enyl-4-(cis-2,6-dimethyl-piperidin-4-yl)-phenyl]-amide bis trifluoroacetic acid salt], 9.70; as for `Cc1cscc1-c1cc(N2CCN(C)CC2)ccc1NC(=O)c1ccc(C#N)o1` [Example 5, 5-Cyano-furan-2-carboxylic acid [4-(4-methyl-piperazin-1-yl)-2-(4-methyl-thiophen-3-yl)-phenyl]-amide], 6.02.
On the same count and under the same terms, the value for `N#Cc1c[nH]c(C(=O)Nc2ccc(C3CCNCC3)cc2C2=CCCCC2)c1` [Example 13, 4-Cyano-1H-pyrrole-2-carboxylic acid (2-cyclohex-1-enyl-4-piperidin-4-yl-phenyl)-amide trifluoroacetic acid salt] was 7.92; that for `CC1(C)CC=C(c2nc(C3CCNCC3)ccc2NC(=O)c2nc(C#N)c[nH]2)CC1` [Example 54, 4-Cyano-1H-imidazole-2-carboxylic acid [6-(4,4-dimethyl-cyclohex-1-enyl)-1′,2′,3′,4′,5′,6′-hexahydro-[2,4′]bipyridinyl-5-yl]-amide trifluoroacetic acid salt] was 9.10; that for `O=C(Nc1ccc(C2CCNCC2)cc1C1=CCCCC1)c1nnc[nH]1` [Example 49, 4H-[1,2,4]-triazole-3-carboxylic acid (2-cyclohex-1-enyl-4-piperidin-4-yl-phenyl)-amide bis trifluoroacetic acid salt] was 7.22.
Turning to `CN1CCN(c2ccc(NC(=O)c3ccc(C#N)o3)c(C3=CCOCC3)c2)CC1` [Example 12], the negative logarithm of the IC50 (pIC50) under setting [1] was 7.22.
Same read-out and setting: as for `CON1CCC(c2ccc(NC(=O)c3ncc(C#N)[nH]3)c(C3=CCCCC3)c2)CC1` [Example 53, 5-Cyano-1H-imidazole-2-carboxylic acid [2-cyclohex-1-enyl-4-(1-methoxy-piperidin-4-yl)-phenyl]-amide trifluoroacetic acid salt], the figure is 8.28.
In the case of `Cc1ccsc1-c1cc(N2CCN(C)CC2)ccc1NC(=O)c1ccc(C#N)o1` [Example 4, 5-Cyano-furan-2-carboxylic acid [4-(4-methyl-piperazin-1-yl)-2-(3-methyl-thiophen-2-yl)-phenyl]-amide], the negative logarithm of the IC50 (pIC50) was 6.33.
Consider `N#Cc1c[nH]c(C(=O)Nc2ccc(C3CCNCC3)cc2C2=CCS(=O)(=O)CC2)n1` [Example 36, 4-Cyano-1H-imidazole-2-carboxylic acid [2-(1,1-dioxo-1,2,3,6-tetrahydro-1λ^6-thiopyran-4-yl)-4-piperidin-4-yl-phenyl]-amide trifluoroacetic acid salt], for which the negative-log IC50 (pIC50) under setting [1] was 7.22.
Regarding `CN(C)CC(=O)N1CCC(c2ccc(NC(=O)c3nc(C#N)c[nH]3)c(C3=CCC(C)(C)CC3)n2)CC1` [Example 55, 4-Cyano-1H-imidazole-2-carboxylic acid [1′-(2-dimethylamino-acetyl)-6-(4,4-dimethyl-cyclohex-1-enyl)-1′,2′,3′,4′,5′,6′-hexahydro-[2,4′]bipyridinyl-5-yl]-amide trifluoroacetic acid salt], under setting [1], the negative logarithm of the IC50 (pIC50) is 9.15.
